Measurements taken from patent US11555009B2, “2-(substituted benzene matrix) aromatic formate FTO inhibitor, preparation method therefor, and applications thereof” (SHANGHAI INSTITUTE OF MATERIA MEDICA, CHINESE ACADEMY OF …, priority 2017, dated 2023).

What was measured:
[1] = tested on: human small cell lung cancer cell lines (SCLC-21H); assay: MTS cytotoxicity on SCLC-21H cells; assay type: cell-based; conditions: 50 μM, 72 h; for inhibition at 50 µM: Homo sapiens, SCLC-21H, read-out: Inhibition rate (human small cell lung cancer SCLC-21H)
Description: (§1) The following was a study of the cytotoxicity study of compound of 2-(substituted phenylhetero)aromatic formic acid of formula (I) and its derivatives as FTO inhibitors on solid tumors including human small cell lung cancer cell lines (SCLC-21H), human bone marrow rhabdomyosarcoma cell line (RH30) and pancreatic cancer cell Line (KP3):
(§2) SCLC-21H, RH30 and KP3 solid tumor cell lines were cultivated separately, and seeded at 5000 cells per well in 96 well plates. The cells were cultured until the cells were adherent, and different compounds were added and the cultivation was continued for 72 hours. 10 uL of MTS solution was directly added and the mixture was incubated for 4 h, and the absorbance was measured at 490 nm. The inhibition rate was calculated by using the DMSO group as a control.

[2] = tested on: human bone marrow rhabdomyosarcoma cell line (RH30); assay: MTS cytotoxicity on RH30 cells; assay type: cell-based; conditions: 50 μM, 72 h; for inhibition at 50 µM: Homo sapiens, Rh30, read-out: Inhibition rate (human bone marrow rhabdomyosarcoma cell RH30)
Description: as §1, §2

[3] = target: FTO (Homo sapiens (Human), UniProt Q9C0B1); assay: FTO enzyme inhibition (m6A dsDNA substrate, DpnII digestion, gel readout); assay type: biochemical; conditions: for inhibition at 50 µM: read-out: Inhibition rate; for Inhibition rate: in vitro inhibition rate on FTO, compound at 50 μM
Description: High purity FTO protein was obtained by nickel column affinity chromatography purification.
After incubation at room temperature for 2 hrs, the reaction system was then slowly heated to 65° C. to inactivate, and 1 μM 39 nt of antisense strand DNA was added to anneal, thereby forming double strands. […] After Gel-Red dyeing, photos were taken with gel imaging system. The obtained band was subjected to gray scale reading to obtain inhibition rate.

FTO, sequence (Q9C0B1 whole entry): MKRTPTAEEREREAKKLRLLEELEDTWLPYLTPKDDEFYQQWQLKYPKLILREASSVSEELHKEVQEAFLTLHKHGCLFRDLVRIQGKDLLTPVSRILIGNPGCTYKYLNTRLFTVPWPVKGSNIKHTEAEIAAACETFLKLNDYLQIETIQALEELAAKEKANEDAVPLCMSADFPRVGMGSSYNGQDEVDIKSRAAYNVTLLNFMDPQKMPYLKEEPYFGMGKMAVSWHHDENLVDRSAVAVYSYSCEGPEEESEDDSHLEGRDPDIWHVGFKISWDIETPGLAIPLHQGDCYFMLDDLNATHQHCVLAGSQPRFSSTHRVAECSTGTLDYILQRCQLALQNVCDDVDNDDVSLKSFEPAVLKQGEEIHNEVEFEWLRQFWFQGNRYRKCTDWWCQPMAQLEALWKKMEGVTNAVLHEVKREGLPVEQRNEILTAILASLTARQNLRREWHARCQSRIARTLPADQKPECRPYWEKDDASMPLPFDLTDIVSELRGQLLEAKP

| SMILES | Inhibition rate (human small cell lung cancer SCLC-21H) [1] [%] | Inhibition rate (human bone marrow rhabdomyosarcoma cell RH30) [2] [%] | also measured |
| --- | --- | --- | --- |
| COc1cc(-c2cn[nH]c2)cc(OC)c1Nc1ccccc1C(=O)O [Compound 41] | 35 | 28 | – |
| CCCOCCOC(=O)c1ccccc1Nc1c(Cl)cc(-c2c(C)noc2C)cc1Cl [Compound 85] | – | – | inhibition at 50 µM [3]: 30% |
| O=C(O)c1cc(F)ccc1Nc1c(Cl)cc(-c2ccc(F)cc2)cc1Cl [Compound 72] | 64 | 37 | – |
| O=C(O)c1nccnc1Nc1c(Cl)cc(-c2ccncc2)cc1Cl [Compound 66] | 48 | 53 | – |
| O=C(O)c1ccccc1Nc1c(Cl)cc(C2CCNCC2)cc1Cl [Compound 56] | – | – | Inhibition rate [3]: 45% |
| O=C(O)c1ccc(-c2cc(Cl)c(Nc3ccccc3C(=O)O)c(Cl)c2)s1 [Compound 10] | – | – | IC50 [3]: < 1000 nM |
| O=C(O)c1ccccc1Nc1ccc(-c2ccncc2)cc1O [Compound 52] | – | – | Inhibition rate [3]: 90% |
| Cc1n[nH]cc1-c1cc(Cl)c(Nc2nccnc2C(=O)O)c(Cl)c1 [Compound 67] | 33 | 41 | – |
| O=C(O)c1cc(F)ccc1Nc1c(Cl)cc(-c2cncnc2)cc1Cl [Compound 71] | – | – | Inhibition rate [3]: 70% |
| CCN(CC)CCOC(=O)c1ccccc1Nc1c(Cl)cc(-c2c(C)noc2C)cc1Cl [Compound 86] | – | – | inhibition at 50 µM [3]: 31% |
| C#CCOC(=O)c1ccccc1Nc1c(Cl)cc(-c2c(C)noc2C)cc1Cl [Compound 84] | – | – | inhibition at 50 µM [3]: 34% |
| Cc1noc(C)c1-c1cc(Cl)c(Nc2ccccc2C(=O)O)c(Cl)c1 [Compound 28] | 32 | 21 | – |
| Cc1cc(-c2c(C)noc2C)c(C)cc1Nc1ccccc1C(=O)O [Compound 48] | 63 | 51 | – |
| Cc1noc(C)c1-c1cc(Cl)c(Nc2ccc(F)cc2C(=O)O)c(Cl)c1 [Compound 69] | 50 | 29 | – |
| O=C(O)c1cccnc1Nc1c(Cl)cc(-c2ccccc2)cc1Cl [Compound 60] | 71 | 72 | – |
| O=C(O)c1ccccc1Nc1c(Cl)cc(-c2cc(O)cc(O)c2)cc1Cl [Compound 1] | – | – | IC50 [3]: 700 nM; inhibition at 50 µM [3]: 85% |
| COc1cc(-c2c(C)noc2C)cc(OC)c1Nc1ccccc1C(=O)O [Compound 43] | 44 | 25 | – |
| COc1cc(OC)cc(-c2cc(Cl)c(Nc3ncccc3C(=O)O)c(Cl)c2)c1 [Compound 61] | 44 | 52 | – |
| Cc1noc(C)c1-c1cc(O)c(Nc2ccccc2C(=O)O)c(O)c1 [Compound 40] | – | – | Inhibition rate [3]: 100% |
| O=C(O)c1nccnc1Nc1c(Cl)cc(-c2ccoc2)cc1Cl [Compound 68] | 68 | 56 | – |
| Cc1noc(C)c1-c1cc(Cl)c(Nc2ccccc2C(=O)O)c(Cl)c1 [Compound 29] | 46 | 47 | – |
| Cc1noc(C)c1-c1cc(Cl)c(Nc2ccccc2C(=O)O)c(Cl)c1 [Compound 15, 2-((2,6-dichloro-4-(3,5-dimethylisoxazole)phenyl)amino)benzoic acid] | – | – | inhibition at 50 µM [1]: 43%; inhibition at 50 µM [2]: 49% |
| Cc1n[nH]c(C)c1-c1cc(Cl)c(Nc2ccccc2C(=O)O)c(Cl)c1 [Compound 17] | – | – | inhibition at 50 µM [1]: 25%; inhibition at 50 µM [2]: 39% |
| Cc1noc(C)c1-c1cc(Cl)c(Nc2ccccc2-c2nn[nH]n2)c(Cl)c1 [Compound 26] | 17 | 36 | – |
| Cc1noc(C)c1-c1cc(Cl)c(Nc2ccccc2C(=O)O)c(Cl)c1 [Compound 30] | 33 | 32 | – |
